Reference: US12448369B2 (Edgewise Therapeutics, Inc., priority 2023, dated 2025)
Marks after values point to notes of the source that are not given here.

Assays:
[1] = test system: Porcine atria myofibrils (atrial myosin ATPase); assay: Myofibril ATPase assay, porcine atria myofibrils; type: biochemical; conditions: porcine atria myofibrils
Summary of the method: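 Values are Y75 (concentration cutting ATPase activity to 75% of vehicle) or Y125 (raising it to 125%), taken from 4-parameter logistic fits. Rates come from NADH disappearance at 340 nm in a PK/LDH-coupled assay with porcine atria myofibrils.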

[2] = molecular target: T1, Porcine ventricle myofibrils (ventricular myosin ATPase) (Sus scrofa, UniProt P79293); assay: Myofibril ATPase assay, porcine ventricle myofibrils; type: biochemical, porcine (Yucatan minipigs); conditions: porcine ventricle myofibrils
T1 construct: Myofibrils from porcine cardiac muscle was isolated from the left ventricle of Yucatan minipigs; tissue Exemplar Genetics; host or cells: left ventricle of Yucatan minipigs, myofibrils prepared in house
T1 sequence (P79293 whole entry): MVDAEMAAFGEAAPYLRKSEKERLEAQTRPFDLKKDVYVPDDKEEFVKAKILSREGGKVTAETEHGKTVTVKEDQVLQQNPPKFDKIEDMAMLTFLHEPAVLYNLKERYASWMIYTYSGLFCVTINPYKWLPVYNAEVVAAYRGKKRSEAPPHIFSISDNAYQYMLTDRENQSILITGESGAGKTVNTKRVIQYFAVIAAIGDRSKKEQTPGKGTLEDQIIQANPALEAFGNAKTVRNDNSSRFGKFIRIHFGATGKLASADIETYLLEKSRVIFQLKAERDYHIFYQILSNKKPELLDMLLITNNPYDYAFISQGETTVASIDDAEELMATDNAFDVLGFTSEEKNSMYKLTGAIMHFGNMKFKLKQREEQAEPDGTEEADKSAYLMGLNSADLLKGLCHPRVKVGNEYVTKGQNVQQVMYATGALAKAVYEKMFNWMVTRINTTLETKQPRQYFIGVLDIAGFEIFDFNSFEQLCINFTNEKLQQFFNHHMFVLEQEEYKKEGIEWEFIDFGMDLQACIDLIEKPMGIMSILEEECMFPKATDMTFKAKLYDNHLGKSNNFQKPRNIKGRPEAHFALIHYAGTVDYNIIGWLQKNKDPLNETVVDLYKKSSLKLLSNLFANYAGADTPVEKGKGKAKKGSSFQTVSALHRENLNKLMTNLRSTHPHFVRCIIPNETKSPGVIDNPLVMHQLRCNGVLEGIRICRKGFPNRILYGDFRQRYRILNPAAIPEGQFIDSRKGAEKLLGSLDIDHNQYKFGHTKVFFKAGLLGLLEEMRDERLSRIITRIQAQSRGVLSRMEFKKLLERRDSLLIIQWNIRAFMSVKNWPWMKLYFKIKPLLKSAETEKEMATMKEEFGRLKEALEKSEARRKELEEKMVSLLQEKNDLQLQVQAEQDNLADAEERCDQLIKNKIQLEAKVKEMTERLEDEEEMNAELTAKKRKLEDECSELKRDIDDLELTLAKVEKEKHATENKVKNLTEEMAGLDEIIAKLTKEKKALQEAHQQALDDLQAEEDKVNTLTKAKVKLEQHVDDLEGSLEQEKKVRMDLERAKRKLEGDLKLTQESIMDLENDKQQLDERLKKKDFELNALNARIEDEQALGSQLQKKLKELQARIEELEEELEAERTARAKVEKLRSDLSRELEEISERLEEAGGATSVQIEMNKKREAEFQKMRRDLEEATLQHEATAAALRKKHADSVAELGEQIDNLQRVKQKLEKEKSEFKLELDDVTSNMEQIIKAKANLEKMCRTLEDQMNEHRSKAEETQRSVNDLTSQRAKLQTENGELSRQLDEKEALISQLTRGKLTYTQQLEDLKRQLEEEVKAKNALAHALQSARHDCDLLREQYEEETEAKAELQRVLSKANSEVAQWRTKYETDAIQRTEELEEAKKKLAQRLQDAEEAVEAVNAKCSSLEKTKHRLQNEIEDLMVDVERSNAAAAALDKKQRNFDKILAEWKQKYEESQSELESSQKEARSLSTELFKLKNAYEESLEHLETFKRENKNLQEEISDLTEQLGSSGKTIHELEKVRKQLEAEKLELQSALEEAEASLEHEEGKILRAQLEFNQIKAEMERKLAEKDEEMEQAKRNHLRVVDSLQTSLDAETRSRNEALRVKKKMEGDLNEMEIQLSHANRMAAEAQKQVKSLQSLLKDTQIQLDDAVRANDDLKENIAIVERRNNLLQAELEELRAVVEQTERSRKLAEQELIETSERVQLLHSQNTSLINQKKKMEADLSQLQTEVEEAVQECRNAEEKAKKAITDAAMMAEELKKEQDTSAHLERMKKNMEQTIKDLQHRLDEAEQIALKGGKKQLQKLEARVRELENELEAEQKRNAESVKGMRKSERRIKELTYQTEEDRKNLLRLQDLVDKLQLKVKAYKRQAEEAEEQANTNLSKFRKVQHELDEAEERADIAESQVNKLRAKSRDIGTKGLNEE
Summary of the method: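 In a coupled enzyme format, ADP from myofibril ATPase drives NADH oxidation, monitored kinetically at 340 nm for 75 min using minipig ventricle myofibrils. Effective concentrations giving 25% loss or gain of activity relative to vehicle were calculated from 4-parameter fits.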

[3] = test system: Rabbit Psoas myofibrils (skeletal myosin ATPase); assay: Myofibril ATPase assay, rabbit psoas (skeletal) myofibrils; type: biochemical; conditions: rabbit psoas myofibrils
Summary of the method: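 Myofibrils homogenized in Triton X-100 buffer were assayed in pH 7.0 PIPES with defined Ca2+/EGTA. Myosin-driven ADP formation was coupled to NADH oxidation, with depletion monitored at 340 nm. Each value is the concentration that lowers activity to 75% of vehicle or, for activators, raises it to 125%.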

[4] = Y75 value (75% activity relative to no compound)

SMILES | Atrial EC25 [1, 4] [µM] | Ventricular EC25 ([2]; Y75 value) [µM] | Skeletal EC25 ([3]; Y75 value) [µM] | Atrial EC25 ([1]; Y75 value (no ‡ mark)) [µM] | Ventricular EC25 ([2]; Y75 value (no ‡ mark)) [µM] | Skeletal EC25 ([3]; Y75 value (no ‡ mark)) [µM] | also measured
Cc1nccc2[nH]c(=O)c(C(F)(F)C(=O)N[C@@H](C)c3cnc(C#N)cn3)c(C)c12 (single isomer, unassigned) [compound 3521] | 14.61 | 34.58 | 2.68 | – | – | – | –
C[C@@H](NC(=O)C1(c2cc3cc(F)ccc3[nH]c2=O)CC1)c1nccc(C#N)n1 (single isomer, unassigned) [compound 2507] | – | – | – | 4.10 | 100.00 | 19.51 | –
Cc1c(C(F)(F)C(=O)N[C@H](C)c2ncc(C#N)cn2)c(=O)[nH]c2ccc(F)cc12 (single isomer, unassigned) [compound 2594] | – | – | – | 0.23 | 0.33 | 0.33 | –
Cc1ccccc1[C@H](CO)NC(=O)Cc1c(C)c2c(C)nccc2[nH]c1=O (single isomer, unassigned) [compound 338] | 8.69 | 100.00 | 27.39 | – | – | – | –
N#Cc1cnc2c(c1)CC[C@H]2NC(=O)Cc1cc2c(F)c(F)ccc2[nH]c1=O (single isomer, unassigned) [compound 7] | – | – | – | 3.80 | 1.27 | 0.81 | –
Cc1c(C(F)(F)C(=O)N[C@@H](C)c2ncc(C#N)cn2)c(=O)[nH]c2ccc(F)c(C#N)c12 (single isomer, unassigned) [compound 2522] | – | – | – | 0.32 | 0.72 | 0.14 | –
C[C@H](NC(=O)C1(c2cc3c(F)c(F)ccc3[nH]c2=O)CC1)c1nccc(C#N)n1 (single isomer, unassigned) [compound 2506] | – | – | – | 100.00 | 100.00 | 100.00 | –
Cc1nc(C#N)cnc1[C@H](C)NC(=O)Cc1c(C)c2c(F)c(F)ccc2[nH]c1=O [compound 1140] | – | – | – | 0.08 | 0.06 | 0.00 | –
Cc1nccc2[nH]c(=O)c(CC(=O)N[C@H](CO)c3cccnc3)c(C)c12 (single isomer, unassigned) [compound 311] | 100.00 | 100.00 | 100.00 | – | – | – | –
C[C@@H](NC(=O)Cc1c(C(F)(F)F)c2c(C3CC3)nccc2[nH]c1=O)c1ccc(C#N)nn1 (single isomer, unassigned) [compound 3003] | – | 100.00 | – | – | – | – | Atrial EC25 (Y125 value, marked ‡) ([1]; Y125 value (125% activity), not a Y75 value): 92.51‡ μM; Skeletal EC25 (Y125 value, marked ‡) ([3]; Y125 value, not a Y75 value): 94.25‡ μM
C[C@H](NC(=O)C(F)(F)c1cc2c(F)c(F)ccc2[nH]c1=O)c1cccc(C#N)n1 (single isomer, unassigned) [compound 2572] | – | – | – | 100.00 | – | 100.00 | Ventricular EC25 ([2]; ‡ Y125 value, not a Y75 value (125% activity relative to no compound)): 100.00‡ μM
Cc1ccccc1[C@@H](CO)NC(=O)Cc1c(C)c2c(C)nccc2[nH]c1=O (single isomer, unassigned) [compound 337] | 100.00 | 100.00 | 100.00 | – | – | – | –
Cc1nccc2[nH]c(=O)c(C(F)(F)C(=O)N[C@H](CO)c3ncc(C#N)cc3F)c(C)c12 (single isomer, unassigned) [compound 3522] | 1.10 | 2.90 | 0.28 | – | – | – | –
Cc1c(F)ccc2[nH]c(=O)c(C(F)(F)C(=O)N[C@H](C)c3ncc(C#N)cn3)c(C)c12 (single isomer, unassigned) [compound 4831] | – | – | – | 0.12 | 0.39 | 0.06 | –
Cc1c(CC(=O)N[C@@H](C)c2ccc(F)cc2F)c(=O)[nH]c2ccc(C#N)nc12 [compound 281] | 0.27 | 5.52 | 0.34 | – | – | – | –
Cc1c(CC(=O)N[C@@H](C)c2ncc(C#N)cc2F)c(=O)[nH]c2ccc(F)c(C(F)(F)F)c12 [compound 22] | – | – | – | 0.02 | 0.02 | 0.00 | –

SMILES | Atrial EC25 [1, 4] [µM] | Ventricular EC25 ([2]; Y75 value) [µM] | Skeletal EC25 ([3]; Y75 value) [µM] | Atrial EC25 ([1]; Y75 value (no ‡ mark)) [µM] | Ventricular EC25 ([2]; Y75 value (no ‡ mark)) [µM] | Skeletal EC25 ([3]; Y75 value (no ‡ mark)) [µM] | also measured
Cc1c(C2(C(=O)N[C@H](C)c3ncc(C#N)cc3F)CC2)c(=O)[nH]c2cccc(C#N)c12 (single isomer, unassigned) [compound 2541] | – | – | – | 0.33 | 0.70 | 0.85 | –
Cc1c(CC(=O)N[C@H](CO)c2ncc(F)cc2F)c(=O)[nH]c2ccc(C#N)nc12 [compound 259] | 100.00 | 100.00 | 100.00 | – | – | – | –
Cc1c(CC(=O)N[C@H](CO)c2ccc(C#N)cc2F)c(=O)[nH]c2ccnc(C(F)(F)F)c12 (single isomer, unassigned) [compound 224] | 6.57 | 100.00 | 0.36 | – | – | – | –
Cc1c(CC(=O)N[C@@H](C)c2ncc(C#N)cc2F)c(=O)[nH]c2ccc(F)c(C3CC3)c12 [compound 28] | – | – | – | 0.04 | 0.06 | 0.02 | –
C[C@H](NC(=O)[C@H](C)c1cc2cnccc2[nH]c1=O)c1ccc(F)cc1F (single isomer, unassigned) [compound 443] | 100.00 | 100.00 | 1.34 | – | – | – | –
Cc1nccc2[nH]c(=O)c(CC(=O)N[C@H](CO)c3ccc(F)cc3F)c(C)c12 [compound 498] | 100 | 100 | 7.2 | – | – | – | –
Cc1c(CC(=O)N[C@H](C)c2ccc(C#N)cc2F)c(=O)[nH]c2ccnc(C#N)c12 (single isomer, unassigned) [compound 282] | 1.55 | 1.16 | 0.35 | – | – | – | –
Cc1cc(C#N)nnc1[C@H](C)NC(=O)Cc1c(C)c2c(C)nccc2[nH]c1=O [compound 490] | 100.00 | 100.00 | 45.80 | – | – | – | –
Cc1nccc2[nH]c(=O)c([C@H](C)C(=O)N[C@H](C)c3ccc(C#N)cc3F)c(C)c12 (single isomer, unassigned) [compound 184] | 100.00 | 100.00 | 100.00 | – | – | – | –
CCOc1nccc2[nH]c(=O)c(CC(=O)N[C@@H](C)c3ccc(F)cc3F)c(C)c12 [compound 381] | 0.10 | 0.31 | 0.01 | – | – | – | –
Cc1nccc2[nH]c(=O)c(CC(=O)N[C@H](CO)c3ccncc3)c(C)c12 [compound 292] | 100.00 | 100.00 | 100.00 | – | – | – | –
Cc1ccc([C@H](CO)NC(=O)Cc2c(C)c3c(C)nccc3[nH]c2=O)cc1 (single isomer, unassigned) [compound 336] | 69.32 | 100.00 | 100.00 | – | – | – | –
Cc1c(CC(=O)N[C@@H](CO)c2ccc(F)cc2F)c(=O)[nH]c2ccc(C#N)nc12 [compound 211] | 7.02 | 53.99 | 22.09 | – | – | – | –
Cc1c(C2(C(=O)N[C@@H](C)c3ncc(C#N)cn3)CC2)c(=O)[nH]c2ccc(F)cc12 (single isomer, unassigned) [compound 2591] | – | – | – | 1.52 | 18.78 | 100.00 | –
Cc1c(CC(=O)N[C@@H](C)c2ncc(C#N)cc2F)c(=O)[nH]c2cc(F)c(F)cc12 [compound 1105] | – | – | – | 100.00 | 4.47 | 1.36 | –
